Data: the supplement of paper PMC10307832

How the values were obtained:
Test in all cases: relative viability (nuclei count vs DMSO), 5 days (fraction); higher = more cells survive
Shikonin + Navitoclax = compound: CC(C)=CC[C@@H](O)C1=CC(=O)c2c(O)ccc(O)c2C1=O [Shikonin] + CC1(C)CCC(c2ccc(Cl)cc2)=C(CN2CCN(c3ccc(C(=O)NS(=O)(=O)c4ccc(N[C@H](CCN5CCOCC5)CSc5ccccc5)c(S(=O)(=O)C(F)(F)F)c4)cc3)CC2)C1 [Navitoclax] (partner 0.5 µM)
Method in brief: (§1)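 Nuclei were stained with Hoechst during a one-step fixation (final 0.05% Triton X-100, 1% formaldehyde, 1 ug/ml Hoechst) carried out 5 days after dosing, then counted on 4× images. The cells, lung cancer lines in 1536-well plates, had been dosed by pin tool the day after seeding with one drug alone or a fixed anchor-drug dose plus five library-drug doses (not always all listed) in √10 steps. Relative viability is the nuclei count in treated wells divided by that in vehicle wells, and each value is the median of duplicate plates.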

[1] = compound: CC(C)N(CCCNC(=O)Nc1ccc(C(C)(C)C)cc1)C[C@H]1O[C@@H](n2ccc3c(N)ncnc32)[C@H](O)[C@@H]1O + C[C@]1(O)C[C@@H](c2nc(-c3ccc4ccc(-c5ccccc5)nc4c3)c3c(N)nccn32)C1 [Linsitinib] (partner 1 µM)
Method in brief: as §1

[2] = compound: CC(C)N(CCCNC(=O)Nc1ccc(C(C)(C)C)cc1)C[C@H]1O[C@@H](n2ccc3c(N)ncnc32)[C@H](O)[C@@H]1O + C[C@@H](Oc1cc(-c2cnn(C3CCNCC3)c2)cnc1N)c1c(Cl)ccc(F)c1Cl [Crizotinib] (partner 1 µM)
Method in brief: as §1

Shikonin + Palbociclib = compound: CC(C)=CC[C@@H](O)C1=CC(=O)c2c(O)ccc(O)c2C1=O [Shikonin] + CC(=O)c1c(C)c2cnc(Nc3ccc(N4CCNCC4)cn3)nc2n(C2CCCC2)c1=O [Palbociclib] (partner 0.5 µM)
Method in brief: as §1

Cell Line | relative viability (Shikonin + Navitoclax; first compound 0.01 µM) | relative viability (Shikonin + Navitoclax; first compound 0.1 µM) | relative viability (Shikonin + Navitoclax; first compound 0.3162 µM) | relative viability (Shikonin + Navitoclax; first compound 1 µM) | relative viability ([1]; first compound 0.08 µM) | relative viability ([1]; first compound 0.253 µM) | relative viability ([1]; first compound 0.8 µM) | relative viability ([1]; first compound 2.53 µM) | relative viability ([1]; first compound 8 µM) | relative viability ([2]; first compound 0.08 µM) | relative viability ([2]; first compound 0.253 µM) | relative viability ([2]; first compound 0.8 µM) | relative viability ([2]; first compound 2.53 µM) | relative viability ([2]; first compound 8 µM) | relative viability (Shikonin + Palbociclib; first compound 0.01 µM) | relative viability (Shikonin + Palbociclib; first compound 0.1 µM) | relative viability (Shikonin + Palbociclib; first compound 0.3162 µM) | relative viability (Shikonin + Palbociclib; first compound 1 µM)
201T | 1.2 | 1.26 | 1.18 | 1.19 | 1.01 | 1.06 | 0.981 | 1.01 | 1.08 | 1.01 | 1.01 | 1.09 | 1.03 | 1.04 | 0.346 | 0.413 | 0.331 | 0.387
A549 | 1.46 | 1.49 | 1.35 | 1.17 | 0.561 | 0.554 | 0.525 | 0.679 | 0.635 | 0.7 | 0.609 | 0.739 | 0.708 | 0.714 |  |  |  | 
A-427 | 0.931 | 1.14 | 0.99 | 0.983 | 1.18 | 1.12 | 1.1 | 1.12 | 1.14 | 0.908 | 0.856 | 0.95 | 0.989 | 0.851 | 0.503 | 0.545 | 0.528 | 0.553
ABC-1 |  |  |  |  | 0.978 | 0.95 |  | 0.709 | 0.905 | 0.816 | 0.926 |  | 1.26 | 1.13 | 0.904 | 0.592 | 0.892 | 0.586
BEN | 0.0555 | 0.0688 | 0.0568 | 0.096 | 0.819 | 0.849 | 0.924 | 1.01 | 0.865 | 0.836 | 0.768 | 0.825 | 0.715 | 0.921 | 0.47 | 0.465 | 0.437 | 0.54
CAL-12T | 1.29 | 1.3 | 1.32 | 1.22 | 0.788 | 0.772 | 0.809 | 0.89 | 0.739 | 0.626 | 0.548 | 0.63 | 0.563 | 0.529 | 0.414 | 0.451 | 0.403 | 0.438
COR-L23 | 1.13 | 1.26 | 1.05 | 0.908 | 0.837 | 0.934 | 0.916 | 1.04 | 0.897 | 0.601 | 0.724 | 0.765 | 0.755 | 0.574 | 0.26 | 0.299 | 0.306 | 0.29
COR-L 105 | 0.9 | 0.786 | 0.747 | 0.768 | 0.805 | 1.18 | 1.07 | 0.727 | 0.896 | 0.671 | 0.823 | 0.82 | 0.724 | 0.846 | 0.447 | 0.388 | 0.483 | 0.402
Calu-6 | 1.1 | 1.11 | 0.981 | 0.448 | 1 | 0.933 | 0.871 | 0.988 | 0.858 | 0.744 | 0.863 | 0.79 | 0.771 | 0.781 |  |  |  | 
ChaGo-K-1 | 0.882 | 1.4 | 1.01 | 1.44 |  |  |  |  |  | 1.16 | 1.22 | 1.2 | 1.14 | 1.08 | 0.977 | 1.09 | 0.968 | 0.968
